BindingDB's records for patent WO2022109573 (VERTEX PHARMACEUTICALS INCORPORATED, 2022)

These compounds were tested against T1, Cystic fibrosis transmembrane conductance regulator [1-507,509-1480] (Human, UniProt P13569, DEL508-508) (assay: Chamber Assay of CFTR-mediated short-circuit currents).
T1 construct: 1-507,509-1480
Method: ssing chamber experiments were performed using human bronchial epithelial (HBE) cells derived from CF subjects heterozygous for F508del and a minimal function CFTR mutation (F508del/MF-HBE) and cultured as previously described (Neuberger T, Burton B, Clark H, Van Goor F Methods Mol Biol 2011:741:39-54). After four days the apical media was removed, and the cells were grown at an air liquid interface for >14 days prior to use. […] To isolate the CFTR-mediated short-circuit (ISC) current, F508del/MF-HBE grown on Costar Snapwell cell culture inserts were mounted in an Ussing chamber and the transepithelial ISC was measured under voltage-clamp recording conditions (Vhold= 0 mV) at 37 °C. The basolateral solution contained (in mM) 145 NaCl, 0.83 K2HPO4, 3.3 KH2PO4, 1.2 MgCl2, 1.2 CaCl2, 10 Glucose, 10 HEPES (pH adjusted to 7.4 with NaOH) and the apical solution contained (in mM) 145 NaGluconate, 1.2 MgCl2, 1.2 CaCl2, 10 glucose, 10 HEPES (pH adjusted to 7.4 with NaOH) and 30 µM amiloride to block the epithelial sodium channel. Forskolin (20 µM) was added to the apical surface to activate CFTR, followed by apical addition of a CFTR inhibitor cocktail consisting of BPO, GlyH-101 and CFTR inhibitor 172 (each at 20 µM final assay concentration) to specifically isolate CFTR currents. The CFTR-mediated ISC (µA/cm2) for each condition was determined from the peak forskolin response to the steady-state current following inhibition.

T1 sequence (P13569 as listed by the source): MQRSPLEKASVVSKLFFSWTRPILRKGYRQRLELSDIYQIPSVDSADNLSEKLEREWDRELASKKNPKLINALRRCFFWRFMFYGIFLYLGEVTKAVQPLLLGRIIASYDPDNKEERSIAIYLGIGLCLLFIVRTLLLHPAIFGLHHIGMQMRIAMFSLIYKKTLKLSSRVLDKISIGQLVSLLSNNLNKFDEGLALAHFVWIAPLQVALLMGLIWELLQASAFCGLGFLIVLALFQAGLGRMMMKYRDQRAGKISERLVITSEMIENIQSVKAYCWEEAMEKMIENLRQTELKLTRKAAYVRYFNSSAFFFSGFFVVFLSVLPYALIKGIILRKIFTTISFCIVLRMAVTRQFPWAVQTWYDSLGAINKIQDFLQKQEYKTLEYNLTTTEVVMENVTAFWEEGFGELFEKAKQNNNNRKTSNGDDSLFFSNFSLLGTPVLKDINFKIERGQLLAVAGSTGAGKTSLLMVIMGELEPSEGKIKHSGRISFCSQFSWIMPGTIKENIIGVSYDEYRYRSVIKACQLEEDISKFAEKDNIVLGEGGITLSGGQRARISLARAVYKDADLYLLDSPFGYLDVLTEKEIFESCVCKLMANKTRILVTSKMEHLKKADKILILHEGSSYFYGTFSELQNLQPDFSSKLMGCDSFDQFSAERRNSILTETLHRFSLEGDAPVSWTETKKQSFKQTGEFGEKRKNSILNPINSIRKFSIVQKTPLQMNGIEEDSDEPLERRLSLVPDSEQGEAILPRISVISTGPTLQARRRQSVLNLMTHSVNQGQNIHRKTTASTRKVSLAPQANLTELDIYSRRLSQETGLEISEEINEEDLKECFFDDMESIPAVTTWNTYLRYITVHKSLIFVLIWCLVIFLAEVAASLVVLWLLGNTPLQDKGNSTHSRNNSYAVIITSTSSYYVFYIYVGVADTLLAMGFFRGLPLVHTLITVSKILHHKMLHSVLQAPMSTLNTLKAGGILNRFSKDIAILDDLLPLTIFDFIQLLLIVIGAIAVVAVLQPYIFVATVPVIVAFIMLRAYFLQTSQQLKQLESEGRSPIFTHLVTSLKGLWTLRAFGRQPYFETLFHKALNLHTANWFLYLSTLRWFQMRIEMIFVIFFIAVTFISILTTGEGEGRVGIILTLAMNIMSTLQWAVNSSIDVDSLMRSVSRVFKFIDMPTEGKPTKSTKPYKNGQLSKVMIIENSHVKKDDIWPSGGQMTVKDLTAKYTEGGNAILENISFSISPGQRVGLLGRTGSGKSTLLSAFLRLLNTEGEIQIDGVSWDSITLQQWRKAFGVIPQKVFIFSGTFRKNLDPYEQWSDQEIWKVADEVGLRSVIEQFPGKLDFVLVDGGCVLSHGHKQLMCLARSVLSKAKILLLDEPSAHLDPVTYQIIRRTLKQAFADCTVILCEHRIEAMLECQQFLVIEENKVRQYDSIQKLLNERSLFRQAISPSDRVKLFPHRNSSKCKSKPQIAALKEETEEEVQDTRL

SMILES | EC50
CNc1cc(C(F)(F)F)c2nc1-c1nnc(o1)[C@@](O)(C(F)(F)F)CCCCC[C@@H]1CCCN21 [WO2022109573, Compound 13] | < 500 nM
CCNc1cc(C(F)(F)F)c2nc1-c1nnc(o1)[C@@](O)(C(F)(F)F)CCCCC[C@@H]1CCCN21 [WO2022109573, Compound 14] | < 500 nM
Nc1cc(C(F)(F)F)c2nc1-c1nnc(o1)[C@](O)(C(F)(F)F)CCCCC[C@H]1CCCN21 [WO2022109573, Compound 7] | < 500 nM
Nc1cc(C(F)(F)F)c2nc1-c1nnc(o1)[C@](O)(C(F)(F)F)CCCCCC[C@H]1CCCN21 [WO2022109573, Compound 25] | < 500 nM
CN1CCCCCCC(O)(C(F)(F)F)C2=NN=C(O2)c2nc1c(C(F)(F)F)cc2N (stereo unspecified) [WO2022109573, Compound 19] | < 500 nM
Nc1cc(C(F)(F)F)c2nc1-c1nnc(o1)[C@](O)(C(F)(F)F)CCCCC1CCN2C1 (stereo partly specified) [WO2022109573, Compound 9] | < 500 nM
Nc1cc(C(F)(F)F)c2nc1-c1nnc(o1)C(O)CCCCC[C@@H]1CCCN21 (stereo partly specified) [WO2022109573, Compound 21] | < 500 nM
Nc1cc(C(F)(F)F)c2nc1-c1nnc(o1)[C@@](O)(C(F)(F)F)CCCCCC[C@H]1CCCN21 [WO2022109573, Compound 24] | < 500 nM
Nc1cc(C(F)(F)F)c2nc1-c1nnc(o1)[C@@](O)(C(F)(F)F)CCCC[C@@H]1CCCN21 [WO2022109573, Compound 17] | < 500 nM
CC1(C)CC2CCCCCC(O)(C(F)(F)F)C3=NN=C(O3)c3nc(c(C(F)(F)F)cc3N)N2C1 (stereo unspecified) [WO2022109573, Compound 29] | < 500 nM
Nc1cc(C(F)(F)F)c2nc1-c1nnc(o1)[C@](O)(C(F)(F)F)CCCCC[C@@H]1CCCN21 [WO2022109573, Compound 4] | < 500 nM
Nc1cc(C(F)(F)F)c2nc1-c1nnc(o1)[C@@](O)(C(F)(F)F)CCCCC1CCN2C1 (stereo partly specified) [WO2022109573, Compound 8] | < 500 nM
Nc1cc(C(F)(F)F)c2nc1-c1nnc(o1)[C@@](O)(C(F)(F)F)CCCC[C@H]1CCCN21 [WO2022109573, Compound 18] | < 500 nM
Nc1cc(C(F)(F)F)c2nc1-c1nnc(o1)[C@@](O)(C(F)(F)F)CCCCCC[C@@H]1CCCN21 [WO2022109573, Compound 23] | < 500 nM

Next, values leading:

EC50 | SMILES
< 500 nM | CCOC(=O)CN1CCCCCCC(O)(C(F)(F)F)C2=NN=C(O2)c2nc1c(C(F)(F)F)cc2N (stereo unspecified) [WO2022109573, Compound 46]
< 500 nM | Nc1cc(C(F)(F)F)c2nc1-c1nnc(o1)/C(=N\O)CCCCC[C@@H]1CCCN21 [WO2022109573, Compound 31]
< 500 nM | Nc1cc(C(F)(F)F)c2nc1-c1nnc(o1)C(O)(C(F)(F)F)CCCC(=O)N1CCN2CC1 (stereo unspecified) [WO2022109573, Compound 37]
< 500 nM | Nc1cc(C(F)(F)F)c2nc1-c1nnc(o1)C(=O)CCCCC[C@@H]1CCCN21 [WO2022109573, Compound 36]
< 500 nM | CC1(O)CCCCC[C@@H]2CCCN2c2nc(c(N)cc2C(F)(F)F)C2=NN=C1O2 (stereo partly specified) [WO2022109573, Compound 45]
< 500 nM | Nc1cc(C(F)(F)F)c2nc1-c1nnc(o1)C(O)(C(F)(F)F)CCCCCCN2CCO (stereo unspecified) [WO2022109573, Compound 41]
< 500 nM | Nc1cc(C(F)(F)F)c2nc1-c1nnc(o1)C(O)(C(F)(F)F)CCCC[C@@H]1CCCN21 (stereo partly specified) [WO2022109573, Compound 32]
